Eleven compounds from ChEMBL document CHEMBL1201862, “PubChem BioAssay data set” (2004) can be followed below.

Among the test systems are T47D; NCI/ADR-RES; SK-OV-3; SNB-19; OVCAR-3; U-251; HOP-62; CCRF-CEM; OVCAR-4; IGROV-1; NCI-H23; HCT-116; Malme-3M; UACC-257; OVCAR-5; CAKI-1; SR; SNB-75; A498; SF-539.
Holding throughout (experiment): NCI anticancer screen, dose series, 48 h

The structures appear in SMILES notation.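 Grown in 96-well plates, cells were treated for 48 hours with each compound at five concentrations. Insufficient inhibition: endpoint recorded as highest concentration tested. Here, GI50 denotes the concentration required for 50% inhibition of growth.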 Calls of active or inactive are those of the source. Rule as the data show it: active = GI50 up to about 1.1 µM and inactive = higher.

For the compound `CC(C)OCC(O)COc1cc(=O)oc2ccccc12` (stereo unspecified), the GI50 in the test on T47D, with NCI/ADR-RES, with SK-OV-3, in the test with SNB-19, in the test with OVCAR-3 and in the test with U-251 was > 100 µM (inactive) in each case. The GI50 with HOP-62, in the test with CCRF-CEM, in the test on OVCAR-4, with IGROV-1, in the test on NCI-H23 and in the test with HCT-116 was > 100 µM (inactive) in each case. Besides, the GI50 in the test on Malme-3M, in the test on UACC-257, in the test on OVCAR-5, with CAKI-1 and in the test with SR was > 100 µM (inactive) in each case.

In the case of `CC(C)(C)C1(O)C=C(O)C(=O)N1NC(=O)c1ccccc1Nc1ccccc1` (stereo unspecified), the GI50 in the test with SNB-75 is 61.4 µM (inactive); with T47D, 36.1 µM (inactive); with NCI/ADR-RES, 27.7 µM (inactive); with SK-OV-3, 25.4 µM (inactive); in the test on A498, 32.1 µM (inactive); in the test on SNB-19, 54.8 µM (inactive). Also, the GI50 in the test with SF-539 was 41.4 µM (inactive); with OVCAR-3, 6.84 µM (inactive); in the test on U-251, 18.2 µM (inactive); in the test with CCRF-CEM it was 8.43 µM (inactive); in the test with OVCAR-4 it was 32.9 µM (inactive); with IGROV-1 it was 66.7 µM (inactive). For the same compound, the GI50 with NCI-H23 is 41 µM (inactive); with HCT-116, 38.6 µM (inactive); with Malme-3M, 32.7 µM (inactive); in the test with UACC-257 it was 24.2 µM (inactive); with OVCAR-5, 84.5 µM (inactive); with CAKI-1, > 100 µM (inactive).

For `Cc1cccc(-c2cc(O)c3c(C)ccnc3n2)c1`, the GI50 is 0.36 µM (active) in the test on SNB-75; 0.826 µM (active) in the test with T47D; 0.255 µM (active) in the test with NCI/ADR-RES; 0.53 µM (active) in the test on SK-OV-3; 0.791 µM (active) in the test on A498; 0.447 µM (active) with SNB-19. For the same compound, the GI50 is 0.456 µM (active) in the test on SF-539; 0.256 µM (active) in the test on OVCAR-3; 0.407 µM (active) in the test with U-251; 0.597 µM (active) with HOP-62; 0.583 µM (active) with CCRF-CEM; 8.41 µM (inactive) in the test on OVCAR-4. Further, the GI50 with IGROV-1 was 0.681 µM (active); in the test with NCI-H23, 1.17 µM (inactive); in the test on HCT-116, 0.355 µM (active); in the test with OVCAR-5, 1.19 µM (inactive); with CAKI-1 it was 0.39 µM (active).

With `O=c1c2ccccc2sc2ccccc12`, the GI50 with SNB-75, with T47D, with NCI/ADR-RES, with SK-OV-3, in the test on A498 and in the test on SNB-19 was > 100 µM (inactive) in each case. The GI50 in the test with SF-539 was > 100 µM (inactive); in the test on OVCAR-3, > 100 µM (inactive); in the test on U-251, 14.9 µM (inactive); with HOP-62, > 100 µM (inactive); in the test on CCRF-CEM, > 100 µM (inactive); in the test on OVCAR-4 it was > 100 µM (inactive). Further, the GI50 with IGROV-1, in the test on NCI-H23, with HCT-116, in the test with Malme-3M, in the test with UACC-257 and in the test on OVCAR-5 was > 100 µM (inactive) each time. Moreover, the GI50 with CAKI-1 was > 100 µM (inactive).

`COc1ccc2nc3cc(Cl)ccc3c(NCCCN(Cc3cc(OC)c(OC)c(OC)c3)Cc3cc(OC)c(OC)c(OC)c3)c2c1`: the GI50 with T47D is 23 µM (inactive); in the test on NCI/ADR-RES, 23.4 µM (inactive); in the test on SK-OV-3, 17.1 µM (inactive); in the test on SNB-19, 17.4 µM (inactive); with SF-539, 2.2 µM (inactive); in the test on OVCAR-3 it was 19 µM (inactive). For the same compound, the GI50 in the test on U-251 was 4.32 µM (inactive); in the test with HOP-62, 4.65 µM (inactive); in the test on IGROV-1, 15.3 µM (inactive); in the test with NCI-H23, > 10 µM (inactive); with HCT-116, 0.174 µM (active); in the test on Malme-3M, 17.7 µM (inactive). Besides, the GI50 with UACC-257 was 13.9 µM (inactive); in the test with OVCAR-5, 13.3 µM (inactive); in the test on CAKI-1 it was 14.4 µM (inactive); in the test on SR, 2.31 µM (inactive).

As for `CC(=O)/C(=C/N1C(=O)CC(=O)NC1=S)C(=O)Nc1ccccc1C`, the GI50 in the test on SNB-75 was 91.6 µM (inactive); in the test on T47D, 81.3 µM (inactive); in the test with NCI/ADR-RES, 39.7 µM (inactive); with SK-OV-3 it was > 100 µM (inactive); in the test with A498, 28.1 µM (inactive); in the test with SNB-19 it was > 100 µM (inactive). Also, the GI50 in the test with SF-539 was 32.3 µM (inactive); in the test with OVCAR-3, 36.1 µM (inactive); in the test with U-251 it was 36 µM (inactive); in the test on HOP-62, 23.3 µM (inactive); in the test on OVCAR-4 it was 57.5 µM (inactive); in the test with IGROV-1, 91 µM (inactive). Moreover, the GI50 is 41.2 µM (inactive) in the test on NCI-H23; 31.6 µM (inactive) in the test on HCT-116; 80.5 µM (inactive) in the test on UACC-257; > 100 µM (inactive) with OVCAR-5; 87.9 µM (inactive) in the test with CAKI-1.

As for `Cc1ccc(S(=O)(=O)NNC(=O)c2cc(C)ccc2NC(=O)C23CC4CC(CC(C4)C2)C3)cc1`, the GI50 is 22.2 µM (inactive) in the test with T47D; 38.5 µM (inactive) in the test with NCI/ADR-RES; 22.6 µM (inactive) with SK-OV-3; 16.9 µM (inactive) in the test with SNB-19; 52.1 µM (inactive) in the test with SF-539; 34.4 µM (inactive) with OVCAR-3. Moreover, the GI50 in the test with U-251 is 27.6 µM (inactive); in the test on HOP-62, 29.3 µM (inactive); in the test on CCRF-CEM, > 100 µM (inactive); with OVCAR-4, 27.7 µM (inactive); with IGROV-1 it was 12.6 µM (inactive); with NCI-H23, 36.1 µM (inactive). For the same compound, the GI50 with HCT-116 is 31.2 µM (inactive); in the test with Malme-3M it was 23.5 µM (inactive); in the test with UACC-257, 25.4 µM (inactive); in the test with OVCAR-5, > 100 µM (inactive); in the test with CAKI-1, 46 µM (inactive); in the test on SR, 84.5 µM (inactive).

As to `CN(C)c1cc[n+](-c2nc([N-]C(=O)C(F)(F)F)nc3c2ncn3C2CC(O)C(CO)O2)cc1` (stereo unspecified), the GI50 with SNB-75, with T47D, in the test on NCI/ADR-RES, with SK-OV-3, in the test with A498 and with SNB-19 was > 100 µM (inactive) in each case. For the same compound, the GI50 in the test on SF-539, in the test with OVCAR-3, in the test with U-251, in the test with HOP-62, in the test with CCRF-CEM and in the test on OVCAR-4 was > 100 µM (inactive) throughout. In addition, the GI50 in the test on IGROV-1, in the test on NCI-H23, in the test with HCT-116, in the test with Malme-3M and in the test on OVCAR-5 was > 100 µM (inactive) each time.

Take `S=c1[nH]c(Cl)cc2nc(Cl)cn12`: the GI50 with SNB-75 was 2.1 µM (inactive); with T47D, 23.4 µM (inactive); in the test with NCI/ADR-RES it was 2.54 µM (inactive); in the test with SK-OV-3, 2.93 µM (inactive); in the test with A498, 14.4 µM (inactive); in the test on SNB-19, 6.04 µM (inactive). Further, the GI50 in the test with SF-539 was 2.2 µM (inactive); with OVCAR-3, 2.59 µM (inactive); in the test on U-251, 4.53 µM (inactive); with HOP-62, 4.84 µM (inactive); in the test on CCRF-CEM, 2.52 µM (inactive); with OVCAR-4, 6.14 µM (inactive). Moreover, the GI50 in the test with IGROV-1 was 4.34 µM (inactive); with NCI-H23 it was 5.82 µM (inactive); with HCT-116 it was 3.82 µM (inactive); in the test on Malme-3M, 2.65 µM (inactive); in the test with UACC-257 it was > 100 µM (inactive); in the test on CAKI-1, 4.53 µM (inactive).

In the case of `CN(CCNC(=O)c1nn(C)c2c1Cc1ccccc1-2)CCNC(=O)c1nn(C)c2c1Cc1ccccc1-2`, the GI50 was 14.4 µM (inactive) in the test with SNB-75; 22.5 µM (inactive) in the test on T47D; 21.4 µM (inactive) with NCI/ADR-RES; 18.2 µM (inactive) in the test with SK-OV-3; 15.2 µM (inactive) in the test with A498; 15.6 µM (inactive) in the test with SNB-19. Also, the GI50 in the test with SF-539 was 14.3 µM (inactive); in the test with OVCAR-3, 11.4 µM (inactive); in the test on U-251, 15.6 µM (inactive); with HOP-62 it was 15.4 µM (inactive); with OVCAR-4 it was 17.6 µM (inactive); in the test with IGROV-1 it was 8.55 µM (inactive). The GI50 with NCI-H23 is 15.4 µM (inactive); with HCT-116, 15.1 µM (inactive); with Malme-3M, 16.3 µM (inactive); in the test with UACC-257 it was 14 µM (inactive); in the test with OVCAR-5 it was 26.8 µM (inactive); in the test on CAKI-1, 18.4 µM (inactive).

`NS(=O)(=O)c1nnc(NC(=O)c2cccc([N+](=O)[O-])c2)s1`: the GI50 in the test with T47D, in the test with NCI/ADR-RES, with SK-OV-3, with SNB-19, in the test on SF-539 and in the test on OVCAR-3 was > 100 µM (inactive) throughout. For the same compound, the GI50 in the test on U-251, in the test with HOP-62, in the test on OVCAR-4, in the test with NCI-H23, in the test on HCT-116 and in the test on Malme-3M was > 100 µM (inactive) each time. Also, the GI50 in the test with UACC-257, in the test on OVCAR-5, in the test with CAKI-1 and in the test with SR was > 100 µM (inactive) throughout.
